ChEMBL document CHEMBL6182941, “Prodrugs Targeting Prostate-Specific Membrane Antigen against Prostate Cancer” (J Med Chem, 2025)

How the values were obtained:
[1] = biological target: T1, Glutamate carboxypeptidase 2 (Homo sapiens, UniProt Q04609); assay: Binding affinity to human recombinant PSMA in LNCaP cells assessed as inhibition constant; format: cell-based
[2] = biological target: T2, N-acetylaspartylglutamate synthase A (Homo sapiens, UniProt Q8IXN7); assay: Binding affinity to NAAG synthetase A (unknown origin) assessed as inhibition constant
T2 sequence (Q8IXN7 whole entry): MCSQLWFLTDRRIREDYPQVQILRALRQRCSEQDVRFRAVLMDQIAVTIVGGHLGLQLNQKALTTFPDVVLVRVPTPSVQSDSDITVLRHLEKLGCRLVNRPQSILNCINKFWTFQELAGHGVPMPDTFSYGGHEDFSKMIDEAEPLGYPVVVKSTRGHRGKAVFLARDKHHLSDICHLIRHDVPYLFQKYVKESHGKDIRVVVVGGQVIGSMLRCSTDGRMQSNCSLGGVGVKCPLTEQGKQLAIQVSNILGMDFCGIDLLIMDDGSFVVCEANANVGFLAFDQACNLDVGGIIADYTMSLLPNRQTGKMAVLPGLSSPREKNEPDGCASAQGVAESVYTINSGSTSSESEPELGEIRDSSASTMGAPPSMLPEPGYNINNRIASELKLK

[3] = biological target: N-acetylated-alpha-linked acidic dipeptidase 2 (Homo sapiens, UniProt Q9Y3Q0); assay: Binding affinity to NAALAD-2 (unknown origin) assessed as inhibition constant
[4] = biological target: T1, Glutamate carboxypeptidase 2; assay: Inhibition of human recombinant PSMA
[5] = system: KB; assay: Cytotoxicity against human KB cells assessed as reduction in cell growth; format: functional, cell-based
[6] = system: A549; assay: Cytotoxicity against human A549 cells assessed as reduction in cell growth; format: functional, cell-based
[7] = system: LNCaP; assay: Cytotoxicity against human LNCaP cells assessed as cell death measured for 24 hrs; format: functional, cell-based
[8] = Cytotoxicity against human PC3-PIP cells; conditions: PC3-PIP cell
[9] = Cytotoxicity against human PC-3 flu cells
[10] = Cytotoxicity against human PC-3 flu cells assessed as reduction in cell viability incubated for 72 hrs by CCK-8 assay
[11] = Cytotoxicity against human PC3-PIP cells assessed as reduction in cell viability incubated for 72 hrs by CCK-8 assay
[12] = Antiproliferative activity against human PC3-PIP cells assessed as reduction in cell viability incubated for 72 hrs by XTT assay
[13] = biological target: Cathepsin B (Homo sapiens, UniProt P07858); assay: Inhibition of cathepsin B (unknown origin)
[14] = Antitumor activity against human PC3-PIP cells xenografted in […] assessed as reduction in tumor volume at 80 mg/kg, IP; format: functional, PC3-PIP cell
[15] = system: CWR22R; assay: Cytotoxicity against human 22Rv1 cells assessed as reduction in cell viability incubated for 48 hrs by MTT assay; format: functional, cell-based; conditions: 22Rv1, 48 h
[16] = Cytotoxicity against human HK-2 cells assessed as reduction in cell viability incubated for 48 hrs by MTT assay; format: toxicity, cell-based
[17] = system: DU-145; assay: Cytotoxicity against human DU-145 cells assessed as reduction in cell viability incubated for 72 hrs by MTT assay; conditions: DU-145, 72 h
[18] = system: LNCaP; assay: Cytotoxicity against human LNCaP cells assessed as reduction in cell viability incubated for 72 hrs by MTT assay
[19] = Half life in BALB/c mouse at 67 mg/kg by LC-MS/MS analysis; format: ADME, organism-based; conditions: in vivo

T1 sequence (Q04609 whole entry): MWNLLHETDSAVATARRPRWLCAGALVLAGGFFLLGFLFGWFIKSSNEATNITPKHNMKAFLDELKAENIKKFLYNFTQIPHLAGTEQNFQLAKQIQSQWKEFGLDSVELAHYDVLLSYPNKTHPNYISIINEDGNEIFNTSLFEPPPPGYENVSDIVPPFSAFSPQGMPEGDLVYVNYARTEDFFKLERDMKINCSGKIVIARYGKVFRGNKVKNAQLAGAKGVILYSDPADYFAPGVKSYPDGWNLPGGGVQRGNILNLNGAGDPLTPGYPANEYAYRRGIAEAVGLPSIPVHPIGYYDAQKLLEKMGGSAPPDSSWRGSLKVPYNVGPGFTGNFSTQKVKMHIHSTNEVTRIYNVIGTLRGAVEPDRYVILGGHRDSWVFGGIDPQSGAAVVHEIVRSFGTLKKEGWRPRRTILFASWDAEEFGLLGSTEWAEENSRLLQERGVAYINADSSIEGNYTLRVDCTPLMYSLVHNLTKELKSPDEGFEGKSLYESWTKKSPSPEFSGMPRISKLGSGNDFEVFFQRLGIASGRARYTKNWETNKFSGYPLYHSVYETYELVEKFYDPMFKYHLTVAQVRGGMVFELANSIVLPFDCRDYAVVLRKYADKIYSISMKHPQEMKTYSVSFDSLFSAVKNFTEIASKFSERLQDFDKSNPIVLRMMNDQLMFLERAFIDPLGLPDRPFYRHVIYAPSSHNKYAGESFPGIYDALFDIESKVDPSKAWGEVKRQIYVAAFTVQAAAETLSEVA
N-acetylated-alpha-linked acidic dipeptidase 2, sequence (Q9Y3Q0 whole entry): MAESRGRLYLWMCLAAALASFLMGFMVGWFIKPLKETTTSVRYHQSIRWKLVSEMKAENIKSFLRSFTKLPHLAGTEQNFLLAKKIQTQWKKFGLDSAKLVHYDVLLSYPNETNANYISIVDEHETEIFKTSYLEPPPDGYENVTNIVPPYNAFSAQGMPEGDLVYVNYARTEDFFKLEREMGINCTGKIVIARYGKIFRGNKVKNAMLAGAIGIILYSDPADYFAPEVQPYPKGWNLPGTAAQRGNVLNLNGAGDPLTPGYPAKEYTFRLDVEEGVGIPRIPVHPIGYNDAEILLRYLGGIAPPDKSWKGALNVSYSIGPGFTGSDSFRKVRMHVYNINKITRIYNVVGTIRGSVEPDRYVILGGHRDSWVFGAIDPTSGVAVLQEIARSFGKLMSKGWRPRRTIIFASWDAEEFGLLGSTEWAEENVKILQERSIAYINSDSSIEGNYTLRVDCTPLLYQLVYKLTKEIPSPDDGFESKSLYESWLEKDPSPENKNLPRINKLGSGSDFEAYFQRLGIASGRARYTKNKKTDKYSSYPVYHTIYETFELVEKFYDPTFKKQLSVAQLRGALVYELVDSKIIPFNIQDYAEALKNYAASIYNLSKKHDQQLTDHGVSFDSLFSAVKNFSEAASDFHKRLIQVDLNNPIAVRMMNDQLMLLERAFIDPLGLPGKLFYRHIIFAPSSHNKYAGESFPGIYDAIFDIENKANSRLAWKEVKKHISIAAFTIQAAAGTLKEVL

**Q.** With `NCCCC[C@H](NC(=O)N[C@@H](CCC(=O)O)C(=O)O)C(=O)O` as the compound, how does the Ki [1] read?
**A.** 12 nM

**Q.** Which Ki [2] does the source give for `O=C(O)CC[C@H](NC(=O)N[C@@H](CCC(=O)O)C(=O)O)C(=O)O` here?
**A.** 8 nM

**Q.** Which Ki [3] does the source give for `O=C(O)CCC(CP(=O)(O)O)C(=O)O` (stereo not given) here?
**A.** ~0.275 nM

**Q.** Which IC50 [4] does the source give for `CSC[C@@H](NC(=O)N[C@H](CCC(=O)O)C(=O)O)C(=O)O` here?
**A.** 15.3 nM

**Q.** What does the source list for `CCCC(=O)OCN(C(=O)[C@@H](NC(=O)[C@H]1CCCCN1C)[C@@H](C)CC)[C@H](C[C@@H](OC(C)=O)c1nc(C(=O)N[C@@H](Cc2ccc(O)cc2)C[C@H](C)C(=O)NNC(=O)OCCSSC[C@H](NC(=O)[C@H](CC(=O)O)NC(=O)[C@H](CC(=O)O)NC(=O)Cc2ccc(CNC(=O)NCCCC[C@@H](NC(=O)N[C@H](CCC(=O)O)C(=O)O)C(=O)O)cc2)C(=O)O)cs1)C(C)C`?
**A.** IC50 [5]: 0.6 nM; IC50 [6]: 0.9 nM; IC50 [7]: ~13 nM

**Q.** Which results are given for `CC[C@@H](C)[C@H]([C@H](CC(=O)N1CCC[C@@H]1[C@@H](OC)[C@H](C)C(=O)N[C@@H](C)[C@H](O)c1ccccc1)OC)N(C)C(=O)[C@H](NC(=O)[C@@H](C(C)C)N(C)C(=O)OCc1ccc(NC(=O)[C@@H](CCCNC(N)=O)NC(=O)[C@@H](NC(=O)CCCCCN2C(=O)CC(SC[C@H](NC(=O)[C@H](CCC(=O)O)NC(=O)[C@H](CCC(=O)O)NC(=O)[C@H](CCC(=O)O)NC(=O)CCCCCNC(=O)[C@H]3CC[C@H](CNC(=O)CC[C@@H](NC(=O)N[C@H](CCC(=O)O)C(=O)O)C(=O)O)CC3)C(=O)NCCCCCC(=O)N[C@@H](CCCCNC(=O)CCCCC[N+]3=C(/C=C/C=C/C=C4/N(C)c5ccc6ccccc6c5C4(C)C)C(C)(C)c4c3ccc3ccccc43)C(=O)O)C2=O)C(C)C)cc1)C(C)C` (stereo not given in full)?
**A.** IC50 [8]: 4.34 nM; IC50 [9]: 4.64 nM; IC50 [10]: 17 nM; IC50 [11]: 0.84 nM

**Q.** Which IC50 [12] does the source give for `CC[C@@H](C)[C@H]([C@H](CC(=O)N1CCC[C@@H]1[C@@H](OC)[C@H](C)C(=O)N[C@@H](C)[C@H](O)c1ccccc1)OC)N(C)C(=O)[C@@H](NC(=O)[C@H](C(C)C)N(C)C(=O)OCc1ccc(NC(=O)[C@@H](CCCNC(N)=O)NC(=O)[C@H](NC(=O)CCCCCCC(=O)NCCCC[C@@H](NC(=O)N[C@H](CCC(=O)O)C(=O)O)C(=O)O)C(C)C)cc1)C(C)C` here?
**A.** 3.9 nM

**Q.** What about the IC50 [13] of the same compound?
**A.** ~0.04 nM

**Q.** And the Activity [14]?
**A.** 62.4 mm3

**Q.** For `CC(=O)O[C@H]1C(=O)[C@@]2(C)[C@H]([C@H](OC(=O)c3ccccc3)[C@]3(O)C[C@H](OC(=O)[C@H](OC(=O)CSSCC(=O)NCCNC(=O)CC[C@@H](NC(=O)N[C@H](CCC(=O)O)C(=O)O)C(=O)O)[C@@H](NC(=O)c4ccccc4)c4ccccc4)C(C)=C1C3(C)C)[C@]1(OC(C)=O)CO[C@@H]1C[C@@H]2O`, which IC50 ([15]; read-out: IC50) is on record?
**A.** 121 nM

**Q.** What about the IC50 at 48 h [16] of the same compound?
**A.** 14.2 nM

**Q.** Which IC50 [17] does the source give for `CC[C@H](C)[C@@H]([C@@H](CC(=O)N1CCC[C@H]1[C@H](OC)[C@@H](C)C(=O)N[C@H](C)[C@@H](O)c1ccccc1)OC)N(C)C(=O)[C@@H](NC(=O)[C@H](C(C)C)N(C)C(=O)OCc1ccc(NC(=O)[C@H](CCCNC(N)=O)NC(=O)[C@@H](NC(=O)CCCCCN2C(=O)CC(SCCC(=O)NC(Cc3cn(CCOCCNCCCCCCOc4cc(OCCCc5c(C)n[nH]c5C)cc(C(=O)O)c4)nn3)C(=O)NCCCCCC(=O)NCCCC[C@H](NC(=O)N[C@@H](CCC(=O)O)C(=O)O)C(=O)O)C2=O)C(C)C)cc1)C(C)C` (stereo not given in full) here?
**A.** 313 nM

**Q.** What about the IC50 [18] of the same compound?
**A.** 5.4 nM

**Q.** With `C/C=C(/C)C(=O)O[C@H]1C(C)=C2[C@H]([C@@H]1OC(=O)CCCCCCC)[C@@](C)(OC(C)=O)C[C@H](OC(=O)CCCCCCCCCCCNC(=O)C[C@H](N)C(=O)N[C@@H](CCC(=O)N[C@@H](CCC(=O)N[C@@H](CCC(=O)N[C@@H](CCC(=O)O)C(=O)O)C(=O)O)C(=O)O)C(=O)O)[C@@]1(O)[C@H]2OC(=O)[C@@]1(C)O` [MIPSAGARGIN] as the compound, how does the half-life [19] read?
**A.** 4.9 h

**Q.** Which IC50 [15] does the source give for `CC(=O)O[C@H]1C(=O)[C@@]2(C)[C@H]([C@H](OC(=O)c3ccccc3)[C@]3(O)C[C@H](OC(=O)[C@H](O)[C@@H](NC(=O)c4ccccc4)c4ccccc4)C(C)=C1C3(C)C)[C@]1(OC(C)=O)CO[C@@H]1C[C@@H]2O` [PACLITAXEL] here?
**A.** 563 nM
